According to patent US10987319B2, “TFEB activator C1 ameliorates app and tau pathology and rescues cognitive deficits in neurodegenerative diseases” (Hong Kong Baptist University, priority 2018, dated 2021):

Legend:
Assay type in all cases: in vivo
5×FAD mice = experiment: Long-term potentiation (TBS, MED64 multi-electrode array) in hippocampal slices of treated mice; conditions: female 5×FAD mice, 10 mg/kg oral 3 months, P<0.001
Method: Heterozygous male 5×FAD mice purchased from Jackson laboratory (#006554) were maintained HKBU animal house at 23±2 OC and 60-15% relative humidity with free access to feed and water ad libitum. Male 5×FAD mice were bred with female wild-type C57BL/6. The produced heterozygous litters were maintained until their age 2 months. At 2 months age tail sample is collected in Non-ionic detergent buffer (50 mM KCL, 10 mM Tris-HCL, 2.5 mM mgCl2, 0.1 mg/ml Gelatin, 0.45% v/v NP-40, 0.45% v/v Tween 20 and 100 μgm/ml Proteinase K). Tail samples were incubated in 55° C. for overnight and denatured at 95° C. for 5 mins. Denatured samples were centrifuged, and supernatant is used for genotyping. Mice tail samples were genotyped using standard PCR protocol by using GoTaq G2 Green Master Mix (M7822), for APP, Forward 5′-[…]-3′ (SEQ ID NO: 81) and reverse, 5′-CGGGGGTCTAGTTCTGCAT-3′ (SEQ ID NO: 82). […]
Brain slice preparation: Wild type and 5× mice treated with or without C1 were cervical dislocated and rapidly brain was removed and placed in oxygenated ice-cold sucrose buffer (213 mM sucrose, 10 mM D-glucose, 2.5 mM KCL, 1.25 mM KH2PO4, 2.5 mM CaCl2, 10 mM MgSO4.7H2O, 75 mM NaCl and […] NaHCO3). […] Slope of each Excitatory Post Synaptic Potential […] (fEPSP) is calculated by using MED64-Quad II system and Mobius MED 64 software.

3×Tg mice = experiment: Open-field test
Method: Homozygous 3×Tg mice (APP KM670/671NL (Swedish), MAPT P301L, PSEN1 M146V) were produced in Hong Kong Baptist University animal house and maintained at 23±2° C. temperature, 60±15% relative humidity with free access to food and water ad libitum. Seven months old WT (129/SvJ, n=6 for male mice; n=10 for female mice) and 3×Tg mice (n=6 for male mice; n=10 for female mice) were treated daily with vehicle (1% CMC-Na; Sigma-Aldrich, C5678]), curcumin analogue C1 (2.5 mg/kg, 5 mg/kg, 10 mg/kg) or curcumin (50 mg/kg; Sigma-Aldrich, 08511) suspended in 1% CMC-Na by oral gavage for 7 months. 3×Tg mice were treated with the indicated compounds for 7 months and then the open-field test was performed to evaluate the exploratory behavior in novel environment. The experiment was conducted 30 min after last dosing time. Mice placed in the center of an empty open field (25 cm×25 cm) were allowed to explore the environment for 5 min without any external disturbance. Ethnovision XT software was used to measure the patterns of movement, time spent in the center and margin, velocity, distance traveled as indicators of agility and exploration.

Aβ plaques = experiment: Immunohistochemistry of Aβ plaques (4G8 antibody), 3×Tg mice; conditions: 10 mg/kg oral 7 months
Method: Homozygous 3×Tg mice (APP KM670/671NL (Swedish), MAPT P301L, PSEN1 M146V) were produced in Hong Kong Baptist University animal house and maintained at 23±2° C. temperature, 60±15% relative humidity with free access to food and water ad libitum.
Brain sections (30 μm) were cut on a microtome and stored at 4° C. in PBS+0.1% sodium azide. Sections were permeabilized for 10 min with cold PBS containing 0.5% Triton X-100 and blocked with 3% bovine serum albumin for 1 h at room temperature.

[1] = system: APP, APP CTFs, Aβ, LC3-II; experiment: Western blotting of brain tissue, 5×FAD mice
Method: 5×FAD male mice were inbred with wild-type (WT, C57/BL6) female mice to produce heterozygous offspring. Offspring were genotyped to select 5×FAD (APP KM670/671NL (Swedish), APP I716V (Florida), APP V717I (London), PSEN1 M146L (A>C), PSEN1 L286V) gene mutations mice.
Brain tissues were lysed with RIPA buffer (TBS with 1% NP-40, 1% sodium deoxycholic acid, 0.1% SDS, and protease phosphatase inhibitor cocktails) and centrifuged at 15,000 RPM for 30 min. Supernatant is collected and the pellets were further lysed with 2% SDS in RIPA buffer. Protein concentration was estimated by BCA assay. […] Protein chemiluminescence signal was detected by using ECL kit and quantified using ImageJ software.

[2] = 5×FAD mice, male and female, 10 mg/kg oral 4 months

Q: What does the source list for `COc1ccccc1/C=C/C(=O)/C=C/c1ccccc1OC` [Compound C1, 1,5-bis(2-methoxyphenyl)penta-1,4-dien-3-one]?
A: synaptic plasticity (long-term potentiation induced by TBS, fEPSP slope) vs vehicle (5×FAD mice): significantly restored; time spent in the center vs vehicle (3×Tg mice; 3×Tg mice, 2.5, 5, 10 mg/kg oral 7 months): dose-dependently decreased; exploratory behavior (3×Tg mice; 3×Tg mice, high dose 10 mg/kg oral 7 months, P<0.001): almost recovered the exploratory behavior to the levels of WT mice; hippocampal Aβ plaque load (Aβ plaques): reduces hippocampal Aβ plaque load; LC3-II levels in brain (autophagy enhancement) [1, 2]: increase in LC3-II levels; levels of A3 in brain [1, 2]: significantly reduced; levels of APP CTFs in brain [1, 2]: significantly reduced; Fl-APP levels in brain ([1]; female 5×FAD mice, oral 4 months): reduced Fl-APP levels
